This is an account of results in paper PMC8137473, “Preclinical trial of a MAP4K4 inhibitor to reduce infarct size in the pig: does cardioprotection in human stem cell-derived myocytes predict success in large mammals?” (Basic Research in Cardiology, 2021).

This test has as its system heart-type fatty acid binding protein (hFABP). In words: efficacy study: plasma hFABP release (ELISA). It counts as in vivo, swine. How it is done: Next, an efficacy study was performed, in adherence to published guidelines for rigor and reproducibility, to evaluate the postulated benefit of DMX-10001 in a large-mammal model of MI. Briefly, 36 closed-chest swine (41 ± 2 kg) were subjected to regional ischemia by occluding the left anterior descending coronary artery (LAD) distal to the first diagonal branch for 60 min, followed by 24 h of reperfusion. Treatment with DMX-10001 (60 mg/kg/h for 0.5 h, followed by 17 mg/kg/h for 23.5 h) versus the vehicle was initiated 20 min prior to reperfusion and continued for 1 day. After 2 h of reperfusion, animals were allowed to recover from anesthesia. At 24 h of reperfusion, the infarct area (IA), area of no-reflow (NR), and area at ischemic risk (AAR) were determined. […] Heart-type fatty acid binding protein (hFABP) release was measured, as a biomarker that correlates with IS and NR in swine at least as well as cardiac troponin I [30]. […] Levels of DMX-10001 and DMX-5804 were determined by liquid chromatography–mass spectrometry (Pharmidex, London, UK). Porcine hFABP was analyzed as described: plasma samples were thawed on ice, diluted 10 × using the standard diluent provided with the kit, and analyzed by enzyme-linked immunosorbent assays according to the manufacturer’s instructions (Life Diagnostics, West Chester, PA). […]
(ELISA stands for enzyme-linked immunosorbent assay.)

On to `COCCOc1ccc(-c2cn(-c3ccccc3)c3ncn(COP(=O)(O)O)c(=O)c23)cc1` [DMX-10001], for which the “plasma level of hFABP” value by setting is: (60 min of reperfusion) 120 ± 19 ng/mL; (baseline) 8 ± 2 ng/mL.
